Tests used:
Assay in all cases: fitness (endpoint OD595 vs no drug) (fraction); higher = more growth
S. pneumoniae D39V = test system: S. pneumoniae D39V
Outline: (§1)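 With the first reading as background, OD595 was measured every 30 min for 14 h in 384-well plates kept at 37 °C and inoculated at OD595 0.01. TSB, LB Lennox or CY was the medium. Fitness is the optical density at the transition into stationary phase divided by the robust mean of no-drug control wells, with a cap of 1.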

S. aureus DSM 20231 = test system: S. aureus DSM 20231
Outline: as §1

B. subtilis 168 = conditions: main component drawn
Outline: as §1

S. aureus Newman = test system: S. aureus Newman
Outline: as §1
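Note: OD595 on entry to stationary phase over no-drug wells; at most 1.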

CO[C@@]12[C@H](COC(N)=O)C3=C(C(=O)C(C)=C(N)C3=O)N1C[C@@H]1N[C@@H]12 [Mitomycin C] + CO[C@H]1/C=C/O[C@@]2(C)Oc3c(C)c(O)c4c(O)c(c(/C=N/N5CCN(C)CC5)c(O)c4c3C2=O)NC(=O)/C(C)=C\C=C\[C@H](C)[C@H](O)[C@@H](C)[C@@H](O)[C@@H](C)[C@H](OC(C)=O)[C@@H]1C [Rifampicin]
fitness, S. pneumoniae D39V
Conditions | first compound 0.001075 µg/mL | first compound 0.002 µg/mL | first compound 0.00215 µg/mL | first compound 0.004 µg/mL | first compound 0.0043 µg/mL | first compound 0.008 µg/mL
partner 0.05 µg/mL | 0.779 | 0.647 | 0.664 | 0.558 | 0.517 | –
partner 0.1 µg/mL | 0.458 | 0.289 | 0.307 | 0.308 | 0.288 | 0.288
partner 0.2 µg/mL | 0.18 | – | 0.169 | – | 0.129 | –

fitness, S. pneumoniae D39V, one replicate
Conditions | first compound 0.002 µg/mL | first compound 0.004 µg/mL | first compound 0.008 µg/mL
partner 0.025 µg/mL | 0.804 | 0.698 | 0.492
partner 0.2 µg/mL | 0 | 0 | 0

CC(=O)NC[C@H]1CN(c2ccc(N3CCOCC3)c(F)c2)C(=O)O1 [Linezolid] + CO[C@@]12[C@H](COC(N)=O)C3=C(C(=O)C(C)=C(N)C3=O)N1C[C@@H]1N[C@@H]12 [Mitomycin C]
Conditions | fitness
S. aureus DSM 20231, first compound 0.125 µg/mL, partner 0.0156 µg/mL | 0.681
S. aureus DSM 20231, first compound 0.125 µg/mL, partner 0.0312 µg/mL | 0.68
S. aureus DSM 20231, first compound 0.125 µg/mL, partner 0.0625 µg/mL | 0.531
S. aureus DSM 20231, first compound 0.25 µg/mL, partner 0.0156 µg/mL | 0.466
S. aureus DSM 20231, first compound 0.25 µg/mL, partner 0.0312 µg/mL | 0.458
S. aureus DSM 20231, first compound 0.25 µg/mL, partner 0.0625 µg/mL | 0.296
S. aureus DSM 20231, first compound 0.5 µg/mL, partner 0.0156 µg/mL | 0.141
S. aureus DSM 20231, first compound 0.5 µg/mL, partner 0.0312 µg/mL | 0.105
S. aureus DSM 20231, first compound 0.5 µg/mL, partner 0.0625 µg/mL | 0.0726
S. pneumoniae D39V, first compound 0.105 µg/mL, partner 0.002 µg/mL | 0.745
S. pneumoniae D39V, first compound 0.105 µg/mL, partner 0.004 µg/mL | 0.669
S. pneumoniae D39V, first compound 0.105 µg/mL, partner 0.008 µg/mL | 0.524
S. pneumoniae D39V, first compound 0.2 µg/mL, partner 0.001075 µg/mL | 0.745
S. pneumoniae D39V, first compound 0.2 µg/mL, partner 0.00215 µg/mL | 0.733
S. pneumoniae D39V, first compound 0.2 µg/mL, partner 0.0043 µg/mL | 0.634
S. pneumoniae D39V, first compound 0.21 µg/mL, partner 0.002 µg/mL | 0.563
S. pneumoniae D39V, first compound 0.21 µg/mL, partner 0.004 µg/mL | 0.563
S. pneumoniae D39V, first compound 0.21 µg/mL, partner 0.008 µg/mL | 0.397
S. pneumoniae D39V, first compound 0.4 µg/mL, partner 0.001075 µg/mL | 0.618
S. pneumoniae D39V, first compound 0.4 µg/mL, partner 0.00215 µg/mL | 0.626
S. pneumoniae D39V, first compound 0.4 µg/mL, partner 0.0043 µg/mL | 0.366
S. pneumoniae D39V, first compound 0.42 µg/mL, partner 0.002 µg/mL | 0.414
S. pneumoniae D39V, first compound 0.42 µg/mL, partner 0.004 µg/mL | 0.389
S. pneumoniae D39V, first compound 0.42 µg/mL, partner 0.008 µg/mL | 0.23
S. pneumoniae D39V, first compound 0.8 µg/mL, partner 0.001075 µg/mL | 0.316
S. pneumoniae D39V, first compound 0.8 µg/mL, partner 0.00215 µg/mL | 0.323
S. pneumoniae D39V, first compound 0.8 µg/mL, partner 0.0043 µg/mL | 0.258

S. aureus DSM 20231, first compound 1 µg/mL, one replicate
Conditions | fitness
partner 0.0156 µg/mL | 0.0176
partner 0.0312 µg/mL | 0.0107
partner 0.0625 µg/mL | 0.0169

CC[C@H](C)[C@H](N)C1=N[C@H](C(=O)N[C@@H](CC(C)C)C(=O)N[C@H](CCC(=O)O)C(=O)N[C@H](C(=O)N[C@H]2CCCCNC(=O)[C@H](CC(N)=O)NC(=O)[C@@H](CC(=O)O)NC(=O)[C@H](Cc3cnc[nH]3)NC(=O)[C@@H](Cc3ccccc3)NC(=O)[C@H]([C@@H](C)CC)NC(=O)[C@@H](CCCN)NC2=O)[C@@H](C)CC)CS1 [Bacitracin] + N[C@@H]1CONC1=O [Cycloserine D]
fitness, B. subtilis 168
Conditions | first compound 37.5 µg/mL | first compound 75 µg/mL | first compound 150 µg/mL
partner 0.125 µg/mL | 0.893 | 0.89 | 0.737
partner 0.25 µg/mL | 0.894 | 0.898 | –
partner 0.5 µg/mL | 0.858 | 0.858 | –

fitness, S. aureus Newman, main component drawn
Conditions | first compound 18.75 µg/mL | first compound 37.5 µg/mL | first compound 75 µg/mL
partner 0.375 µg/mL | 0.761 | 0.282 | 0.0299
partner 0.75 µg/mL | 0.761 | 0.28 | 0.0202
partner 1.5 µg/mL | 0.74 | 0.202 | 0.0116

CO[C@@]12[C@H](COC(N)=O)C3=C(C(=O)C(C)=C(N)C3=O)N1C[C@@H]1N[C@@H]12 [Mitomycin C] + C[n+]1ccc(-c2cc[n+](C)cc2)cc1 [Paraquat]
fitness
Conditions | first compound 0.001075 µg/mL | first compound 0.00215 µg/mL | first compound 0.0043 µg/mL | first compound 0.0156 µg/mL | first compound 0.0312 µg/mL | first compound 0.0625 µg/mL
S. aureus DSM 20231, partner 1.25 µg/mL | – | – | – | 0.717 | 0.684 | 0.563
S. aureus DSM 20231, partner 2.5 µg/mL | – | – | – | 0.691 | 0.678 | 0.577
S. aureus DSM 20231, partner 5 µg/mL | – | – | – | 0.668 | 0.67 | 0.557
S. aureus Newman, partner 1.25 µg/mL | – | – | – | 0.666 | 0.675 | 0.527
S. aureus Newman, partner 2.5 µg/mL | – | – | – | 0.675 | 0.651 | 0.527
S. aureus Newman, partner 5 µg/mL | – | – | – | 0.696 | 0.676 | 0.467
S. pneumoniae D39V, partner 1.5 µg/mL | 0.955 | 0.94 | 0.862 | – | – | –
S. pneumoniae D39V, partner 3 µg/mL | 0.954 | 0.911 | 0.842 | – | – | –
S. pneumoniae D39V, partner 6 µg/mL | 0.961 | 0.919 | 0.783 | – | – | –

fitness, S. pneumoniae D39V, one replicate
Conditions | first compound 0.002 µg/mL | first compound 0.004 µg/mL | first compound 0.008 µg/mL
partner 1.5 µg/mL | 0.852 | 0.77 | 0.553
partner 3 µg/mL | 0.862 | 0.781 | 0.592
partner 6 µg/mL | 0.867 | 0.778 | 0.558

CC[C@H](C)[C@H](N)C1=N[C@H](C(=O)N[C@@H](CC(C)C)C(=O)N[C@H](CCC(=O)O)C(=O)N[C@H](C(=O)N[C@H]2CCCCNC(=O)[C@H](CC(N)=O)NC(=O)[C@@H](CC(=O)O)NC(=O)[C@H](Cc3cnc[nH]3)NC(=O)[C@@H](Cc3ccccc3)NC(=O)[C@H]([C@@H](C)CC)NC(=O)[C@@H](CCCN)NC2=O)[C@@H](C)CC)CS1 [Bacitracin] + CN(C)[C@@H]1C(O)=C(C(N)=O)C(=O)[C@@]2(O)C(O)=C3C(=O)c4c(O)ccc(Cl)c4[C@@](C)(O)[C@H]3C[C@@H]12 [Chlortetracycline]
fitness, B. subtilis 168
Conditions | first compound 37.5 µg/mL | first compound 75 µg/mL | first compound 150 µg/mL
partner 0.0475 µg/mL | 0.865 | 0.856 | 0.723
partner 0.095 µg/mL | 0.753 | 0.68 | 0.497
partner 0.19 µg/mL | – | – | 0.0687

Source: the supplement of paper PMC10627819
